Test results as given in article PMC11256326, “Discovery of Heparin Mimetic, Potent, and Selective Inhibitors of Human Clotting Factor XIIIa” (ACS Omega, 2024).
Marks after values point to notes of the source that are not given here.

Assays:
FXIIIa = target: T1, FXIIIa (Homo sapiens, UniProt P00488); experiment: Michaelis-Menten kinetics of dansylcadaverine and N,N-dimethylcasein conjugation by human FXIIIa; format: biochemical; conditions: for VMAX, dansylcadaverine varied: N,N-dimethylcasein 5 mg/mL; for VMAX, dimethylcasein varied: dansylcadaverine 250 μM
T1 construct: purchased Haematologic Technologies; host or cells: human plasma
T1 sequence (P00488 39-732 limits assumed): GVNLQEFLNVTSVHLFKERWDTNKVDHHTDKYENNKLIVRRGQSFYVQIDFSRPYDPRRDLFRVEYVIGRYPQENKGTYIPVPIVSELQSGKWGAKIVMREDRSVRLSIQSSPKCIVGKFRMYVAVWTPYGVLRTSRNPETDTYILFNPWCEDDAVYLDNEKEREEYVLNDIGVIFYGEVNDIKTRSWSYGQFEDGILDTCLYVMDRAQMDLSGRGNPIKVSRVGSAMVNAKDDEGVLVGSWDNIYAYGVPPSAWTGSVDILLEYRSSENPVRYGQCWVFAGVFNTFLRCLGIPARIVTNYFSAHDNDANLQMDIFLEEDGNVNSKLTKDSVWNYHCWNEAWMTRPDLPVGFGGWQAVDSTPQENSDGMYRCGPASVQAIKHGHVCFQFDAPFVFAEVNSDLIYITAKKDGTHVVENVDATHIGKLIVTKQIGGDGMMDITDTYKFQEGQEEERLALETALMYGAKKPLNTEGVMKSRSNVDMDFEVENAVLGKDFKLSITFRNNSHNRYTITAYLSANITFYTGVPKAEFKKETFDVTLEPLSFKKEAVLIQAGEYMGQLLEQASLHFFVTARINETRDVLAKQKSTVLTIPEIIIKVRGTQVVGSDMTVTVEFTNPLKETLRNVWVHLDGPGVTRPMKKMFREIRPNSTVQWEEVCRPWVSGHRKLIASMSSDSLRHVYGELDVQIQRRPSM
Description: To elucidate the FXIIIa inhibitory capacity of compound 16, the kinetics of dansylcadaverine conjugation with dimethylcasein by FXIIIa were investigated with and without the inhibitor using the bisubstrate fluorescence assay.[36],[49],[55] At a fixed, high concentration of dansylcadaverine (250 μM), the initial rate of conjugation increased in a hyperbolic manner with increasing concentration of dimethylcasein (0–15 mg/mL) (Figure 6A) in the presence as well as absence of inhibitor 16. Analysis using the Michaelis equation led to KM values for dimethylcasein of 0.65 ± 0.04 mg/mL (∼29.5 μM) and 7.54 ± 0.90 mg/mL (∼342.7 μM) in the absence and presence of 16, respectively (Table 4). […] To derive kinetic constants for dansylcadaverine, we used a fixed, high concentration of dimethylcasein (5 mg/mL) and studied the initial rate of conjugation, as described above. […] It is important to note that FXIIIa-mediated reaction is a bisubstrate conjugation reaction and its interaction with inhibitor 16 is sensed differently by the two substrates. […] Yet, for both substrates, there was a similar slight decrease (∼1.5-fold) in the VMAX with the same inhibitor concentration. In these experiments inhibitor 16 was used at varying levels, of which the highest concentration ensured that FXIIIa was essentially fully saturated and inhibited.
The initial rate of FXIIIa-mediated conjugation between dansylcadaverine and N,N-dimethylcasein was determined by monitoring the linear increase in fluorescence at λEM = 550 nm (λEX = 360 nm). This initial rate was assessed as a function of various concentrations of either (1) dansylcadaverine (ranging from 0 to 15 mM; resulting effective concentrations in the well were 0–750 μM) at a fixed saturating concentration of dimethylcasein (5 mg/mL), or (2) dimethylcasein (ranging from 0 to 15 mg/mL) at a fixed concentration of dansylcadaverine (5 mM; resulting effective concentration of 250 μM), both in the absence or presence of inhibitor 16 (at concentrations of 0, 0.5, 2.5, 15, and 25 μM). These assays were conducted in 50 mM Tris-HCl buffer at pH 8.0, containing 100 mM NaCl, 1 mM DTT, and 10 mM CaCl2 at 37 °C. The obtained data were fitted using the standard Michaelis–Menten equation (eq 2) to determine the values of KM and VMAX. [drawing 2] 2

papain = target: T2, papain (Carica papaya, UniProt P00784); experiment: papain chromogenic substrate assay; format: biochemical
T2 construct: purchased Sigma Aldrich
T2 sequence (P00784 134-345): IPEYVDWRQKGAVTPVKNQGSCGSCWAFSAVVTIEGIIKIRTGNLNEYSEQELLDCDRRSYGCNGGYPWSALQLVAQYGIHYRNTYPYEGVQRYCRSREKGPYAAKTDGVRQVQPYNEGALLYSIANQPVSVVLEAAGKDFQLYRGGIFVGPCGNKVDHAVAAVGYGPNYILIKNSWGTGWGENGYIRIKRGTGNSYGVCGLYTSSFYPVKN
Text: FXIIIa and TG-2 belong to the same transglutaminase superfamily, and they share similar protein folds with a sequence similarity of 34%. Although we believe that sulfonated heparin mimetics are less likely to distribute to peripheral tissues, we evaluated inhibitor 16′s potential to inhibit TG-2 (we used recombinant TG-2). […] Likewise, we studied the inhibition of papain, a related cysteine protease, by molecule 16.
Direct inhibition of papain, a cysteine protease, by inhibitor 16 was also evaluated using a chromogenic substrate assay on a microplate reader as reported earlier.[36] Briefly, to each well of a 96-well microplate containing 91 μL of 50 mM Tris-HCl buffer, pH 7.4, containing 100 mM NaCl, 2.5 mM CaCl2, 100 mM DTT, 0.1% PEG8000, and 0.02% Tween80 was added 5 μL of inhibitor 16 (0–20 mM) or vehicle, and 3 μL of papain (130 U/mL) at 37 °C. After 5 min incubation, 1 μL of N-α-benzoyl-L-arginine 4-nitroanilide hydrochloride, the chromogenic substrate (17.7 mM) was rapidly added, and the residual enzyme activity was measured from the initial rate of increase in absorbance at 405 nm. Relative residual enzyme activity as a function of the inhibitor concentration was measured and inhibition parameters were calculated using logistic eq 1.

## Nc1c(/N=N/c2ccc(S(=O)(=O)CCOS(=O)(=O)O)cc2)c(S(=O)(=O)O)cc2cc(S(=O)(=O)O)c(/N=N/c3ccc(S(=O)(=O)CCOS(=O)(=O)O)cc3)c(O)c12 [compound 16]
FXIIIa
  mechanism of FXIIIa inhibition (Michaelis–Menten kinetics): only competes with the Gln-donor protein substrate
FXIIIa; 16 at 25 μM vs absence
  decrease in VMAX, dansylcadaverine varied: ~1.5 fold
  decrease in VMAX, dimethylcasein varied: ~1.4 fold
  decrease in dansylcadaverine binding affinity (KM increase): ~2 fold
  decrease in dimethylcasein binding affinity (KM increase): ~11.6 fold
FXIIIa; [16] = 0.5 μM
  VMAX, dansylcadaverine varied: 111.4 ± 4.1 RFU/min (×10^3)
  VMAX, dimethylcasein varied: 43.5 ± 2.4 RFU/min (×10^3)
FXIIIa; [16] = 2.5 μM
  VMAX, dansylcadaverine varied: 89.76 ± 3.8 RFU/min (×10^3)
  VMAX, dimethylcasein varied: 42.0 ± 0.6 RFU/min (×10^3)
FXIIIa; [16] = 15 μM
  VMAX, dansylcadaverine varied: 81.94 ± 4.0 RFU/min (×10^3)
  VMAX, dimethylcasein varied: 44.5 ± 1.5 RFU/min (×10^3)
FXIIIa; [16] = 25 μM
  VMAX, dansylcadaverine varied: 69.69 ± 2.9 RFU/min (×10^3)
  VMAX, dimethylcasein varied: 34.9 ± 2.0 RFU/min (×10^3)
papain
  selectivity for FXIIIa over papain: > 200 fold
papain; 500 μM
  papain inhibition at the highest concentration tested: did not inhibit
